Patent publication US8609862B2, “Use of an adrenal hormone-modifying agent” (Novartis AG, priority 2010, dated 2013)

Key:
Rat CYP11B2 = molecular target: T1, Rat CYP11B2 (Rattus norvegicus, UniProt P30099); test: In vitro rat CYP11B2 assay; type: biochemical; conditions: V79-4 cell homogenate, 11-deoxycorticosterone to aldosterone, SPA
T1 construct: made in house; host or cells: V79-4 cell line #305 (stably selected with geneticin and hygromycin); sonicated homogenate, 500 x g supernatant
T1 sequence (P30099 35-510): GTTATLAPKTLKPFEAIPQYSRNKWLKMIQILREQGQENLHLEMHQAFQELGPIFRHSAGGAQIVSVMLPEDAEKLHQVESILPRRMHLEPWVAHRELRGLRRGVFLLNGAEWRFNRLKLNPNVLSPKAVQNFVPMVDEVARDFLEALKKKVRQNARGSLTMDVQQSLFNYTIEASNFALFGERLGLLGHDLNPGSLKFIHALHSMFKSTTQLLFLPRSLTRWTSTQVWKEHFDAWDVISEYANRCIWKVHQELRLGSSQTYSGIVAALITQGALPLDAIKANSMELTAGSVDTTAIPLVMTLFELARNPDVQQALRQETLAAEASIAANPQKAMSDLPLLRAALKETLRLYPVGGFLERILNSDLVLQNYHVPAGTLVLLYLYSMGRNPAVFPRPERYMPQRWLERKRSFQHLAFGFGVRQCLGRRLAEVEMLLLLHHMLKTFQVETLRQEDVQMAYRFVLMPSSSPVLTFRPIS
Experimental: (§1) Following 2 days of growth, cells are washed once with PBS, scraped and collected in PBS, and centrifuged at 1,300 rpm for 6 min. […] The sonication procedure is repeated 3 more times, with a 5 min incubation on ice between sonications. The sonicated material is then spun at 500×g for 4 min to remove unbroken cells. The supernatant is brought to a final glycerol concentration of 5%, flash-frozen in liquid nitrogen, and stored at −80° C.
The CYP11B2 assay is performed in 96-well U-bottom non-tissue-culture-treated plates. […] Plates are then centrifuged at 2,400 rpm for 6 min, and 100 μl of supernatant is removed for measurement of aldosterone content by scintillation proximity assay (SPA).
(§2) Measurement of aldosterone is performed using a 96-well plate format. […] Anti-mouse PVT SPA beads (50 μl) are then added to each well and incubated for 4 hr at room temperature prior to counting in a Microbeta plate counter. The amount of aldosterone in each sample is calculated by comparing with a standard curve generated using known quantities of the hormone.
Full concentration-response curves of an inhibitor are performed at least 3 times. The IC50 values are derived using a non-linear least squares curve-fitting program from DBS XLfit.

CYP11B1 = molecular target: T2, CYP11B1 (Rattus norvegicus, UniProt P15393); test: In vivo CYP11B1 assay: plasma corticosterone concentration (PCC) in ACTH-infused conscious rats; conditions: 10 mg/kg p.o., ACTH infusion
T2 construct: from tissue; host or cells: whole animal: conscious male Sprague-Dawley rats under ACTH infusion (the adrenal gland as site of the enzyme comes from the background, b5)
T2 sequence (P15393 25-499): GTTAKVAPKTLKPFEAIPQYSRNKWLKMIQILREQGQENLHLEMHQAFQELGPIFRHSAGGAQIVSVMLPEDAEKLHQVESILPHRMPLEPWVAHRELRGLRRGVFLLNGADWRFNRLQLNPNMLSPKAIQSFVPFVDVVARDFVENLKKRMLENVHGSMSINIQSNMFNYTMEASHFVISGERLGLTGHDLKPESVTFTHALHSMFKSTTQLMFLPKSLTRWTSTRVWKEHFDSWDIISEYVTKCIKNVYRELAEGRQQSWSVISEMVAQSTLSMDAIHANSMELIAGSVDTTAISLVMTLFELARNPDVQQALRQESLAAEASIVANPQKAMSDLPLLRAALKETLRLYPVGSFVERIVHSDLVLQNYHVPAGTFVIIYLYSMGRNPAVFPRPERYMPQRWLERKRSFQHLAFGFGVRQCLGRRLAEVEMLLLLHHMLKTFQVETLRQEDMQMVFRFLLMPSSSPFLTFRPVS
Experimental: (§3) The in vivo effects of compounds on plasma aldosterone concentration (PAC) and plasma glucocorticoid (corticosterone) concentration (PCC) were evaluated in conscious rats.
(§4) Male Sprague-Dawley rats (˜400-600 g body weight) were surgically instrumented with a femoral arterial and venous catheter. The catheters were exteriorized from the lower back through a stainless steel spring and swivel system that enabled the rats to move freely at all times. Rats were allowed at least one week to recover from the surgery before initiating the experiments.
(§5) On the morning of the experiment, a pretreatment blood sample was collected on heparin from the arterial catheter. The blood samples were spun in a refrigerated centrifuge to generate plasma. The plasma was stored frozen at −70° C. until the later measurement of PAC and PCC (by radioimmunoassay). Adrenocorticotropic hormone (ACTH(1-24), referred to herein as ACTH) was then administered as an intravenous (i.v.) bolus (100 ng/kg) followed by a continuous i.v. infusion (30 ng/kg/min) for 9 hours. After one hour of infusion, a baseline (time 0) blood sample was withdrawn from the arterial catheter and processed and stored as described above. The rats were then dosed (typically 0.01 to 100 mg/kg) with the test compound p.o. by oral gavage or parenterally via the arterial catheter (i.a.). Compounds were formulated in an appropriate vehicle (e.g., water (p.o.) or saline (i.a.)) at a physiologically compatible volume (typically 1-2 ml/kg). Additional blood samples were withdrawn at 0.083 (i.a. only), 0.25, 0.5, 1, 2, 3, 4, 5, 6, 7, 8, and 24 hours after dosing with compound and processed and stored as above for later determination of PAC, PCC, and plasma compound concentration (by LC/MS/MS). Oral bioavailability and traditional pharmacokinetic (PK) parameters were estimated from the plasma compound concentrations.
(§6) Based on the plasma compound concentration at each dose, the PK/PD (pharmacodynamic) profiles (reduction of PAC and PCC) of each compound were determined.

Rat CYP11B1 = molecular target: T3, Rat CYP11B1 (Rattus norvegicus, UniProt P15393); test: In vitro rat CYP11B1 assay; type: biochemical; conditions: V79-4 cell homogenate, 11-deoxycorticosterone to corticosterone, SPA
T3 construct: made in house; host or cells: V79-4 cell line #259 (stably selected with geneticin and hygromycin); sonicated homogenate, 500 x g supernatant
T3 sequence (P15393 25-499): T2 sequence (P15393 25-499)
From the text: Complete EDTA-free protease inhibitor tablets were obtained from Roche Applied Science (Indianapolis, Ind.). Dulbecco's modified Eagle medium (DMEM), antibiotic, geneticin, hygromycin, and fetal bovine serum (FBS) were products of Invitrogen (Carlsbad, Calif.). NADPH Regeneration Solution A and Solution B were purchased from BD Biosciences Clontech (Palo Alto, Calif.). Anti-sheep PVT SPA beads and [1,2,6,7-^3H(N)]corticosterone were acquired from Amersham (Piscataway, N.J.) and PerkinElmer (Boston, Mass.), respectively.
as §1, with “For enzyme preparation, #259 cells were seeded in 150 mm dishes in double-selection medium. Following” for “Following”, “were” for “are”, “was” for “is”, “rest” for “incubation”
The CYP11B1 assays were performed in 96-well U-bottom non-tissue-culture-treated plates. […] Plates were then centrifuged at 2,400 rpm for 6 min, and 50 μl of supernatant was removed for measurement of corticosterone content by scintillation proximity assay (SPA).
as §2, with “corticosterone was” for “aldosterone is”, “Anti-sheep” for “Anti-mouse”, “were” for “are”, “overnight” for “for 4 hr”, “corticosterone” for “aldosterone”, “was” for “is”
Full concentration-response curves of an inhibitor were performed at least 3 times. The IC50 values were derived using a non-linear least squares curve-fitting program from IDBS XLfit.

CYP11B2 = molecular target: T4, CYP11B2 (Rattus norvegicus, UniProt P30099); test: In vivo assay: plasma aldosterone concentration (PAC) in ACTH-infused conscious rats; conditions: 10 mg/kg p.o., ACTH infusion
T4 construct: from tissue; host or cells: whole animal: conscious male Sprague-Dawley rats under ACTH infusion (the adrenal gland as site of the enzyme comes from the background, b5)
T4 sequence (P30099 35-510): T1 sequence (P30099 35-510)
Experimental: as §3, §4, §5, §6

adrenal steroidogenesis = test: Pilot single-blind forced-titration study of hormonal effects in patients with primary hyperaldosteronism; type: in vivo, human; conditions: oral 0.5 mg twice daily 2 weeks then 1.0 mg twice daily 2 weeks
Experimental: A pilot, single-blind, forced-titration study was performed to assess the hormonal effects of a compound of formula (I), 4-[(5R)-6,7-dihydro-5H-pyrrolo[1,2-c]imidazol-5-yl]-3-fluororbenzonitrile dihydrogen phosphate, in patients with diagnosed primary hyperaldosteronism. The clinical study was designed, implemented and reported in accordance with the ICH harmonized tripartite guidelines for good clinical practice with applicable local regulations. Each patient participated in a screening/washout period, a 2-week placebo run-in period, a 4-week treatment period, and a 1-week placebo wash-out. The treatment period consisted of the oral administration of compound of formula (I) twice daily at a dose of 0.5 mg for two weeks followed by a dose increase to 1.0 mg twice daily for another 2 weeks. Blood samples were taken at baseline, day 1 and 2, day 8, day 15, day 22, day 29 and 30 (all at predose i.e., 12 h after the last dose), and at the final study day 36. Each sample was assessed for aldosterone and immunoreactive active renin, 11-deoxycorticosterone, cortisol, 11-deoxycortisol and adrenocorticotropin (ACTH) after subjects were at rest for at least 60 minutes to avoid any postural or stress-induced value changes. Plasma aldosterone was measured using a commercially available radioimmunoassay kit (DPC, France). Plasma Active Renin was measured using the two monoclonal antibodies 3E8 and 125I-4G1 in a commercially available immunoradiometric kit (CisBio, France). Plasma 11-deoxycorticosterone, cortisol and 11-deoxycortisol were measured using a standardized LC-MS/MS method. Plasma ACTH was measured using a commercially available immunoradiometric kit (CisBio, France).
Statistical analysis of the pharmacodynamic biomarker were summarized using descriptive statistics as well as graphical and/or regression methods.

| Compound | IC50 (Rat CYP11B2) [nM] | % Reduction from baseline PCC t = 1 h (CYP11B1; 1 h after dosing) [%] | % Reduction from baseline PCC 8 h (CYP11B1; 8 h after dosing) [%] | IC50 (Rat CYP11B1) [nM] | % Reduction from baseline PAC t = 1 h (CYP11B2; 1 h after dosing) [%] | % Reduction from baseline PAC 8 h (CYP11B2; 8 h after dosing) [%] | plasma 11-deoxycorticosterone (P11DOCS) (adrenal steroidogenesis) | plasma 11-deoxycortisol (P11DOC) (adrenal steroidogenesis) | plasma ACTH levels (adrenal steroidogenesis) | plasma active renin level (adrenal steroidogenesis) | plasma aldosterone (adrenal steroidogenesis) | plasma cortisol levels (adrenal steroidogenesis) |
| --- | --- | --- | --- | --- | --- | --- | --- | --- | --- | --- | --- | --- |
| N#Cc1ccc([C@H]2CCc3cncn32)c(F)c1 (single isomer, unassigned) [4-(6,7-Dihydro-5H-pyrrolo[1,2-c]imidazol-5-yl)-3-fluorobenzonitrile enantiomer B, 4-(6,7-Dihydro-5H-pyrrolo[1,2-c]imidazol-5-yl)-3-fluorobenzonitrile] | 110 | 24 | 30 | 495 | 65 | 72 |  |  |  |  |  |  |
| N#Cc1ccc([C@H]2CCc3cncn32)c(F)c1.O=P(O)(O)O [4-[(5R)-6,7-dihydro-5H-pyrrolo[1,2-c]imidazol-5-yl]-3-fluororbenzonitrile dihydrogen phosphate] |  |  |  |  |  |  | unexpectedly high build-up | accumulation | increased ACTH levels | increased active renin level | potent aldosterone suppression | decreasing cortisol levels |
